Measured values: PubChem BioAssay AID1963841 (Molecular Pharmacology Branch, DTP, NCI, 2024)

Test system: 439559-082-T-J2-PDC spheroid viability
Assay: Anticancer human tumor 439559-082-T-J2-PDC patient-derived colon adenocarcinoma cell line growth inhibition [POLQ]
Settings: spheroids with HUVEC and MSC; for IC50: curve of first compound; for viability, T/C: stronger effect = lower value
Outline: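 Three-cell-type spheroids modelling solid tumor plus stroma served as the readout system; POL inhibitors were tested individually and in combination, concentration ranges set by clinical Cmax where known.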

[1] = second compound 0.0316 µM, first compound 0.0316 µM
[2] = second compound 0.0316 µM, first compound 0.1 µM
[3] = second compound 0.0316 µM, first compound 0.316 µM
[4] = second compound 0.0316 µM, first compound 1 µM
[5] = second compound 0.0316 µM, first compound 3.16 µM
[6] = second compound 0.0316 µM, first compound 10 µM
[7] = second compound 0.1 µM, first compound 0.0316 µM
[8] = second compound 0.1 µM, first compound 0.1 µM
[9] = second compound 0.1 µM, first compound 0.316 µM
[10] = second compound 0.1 µM, first compound 1 µM
[11] = second compound 0.1 µM, first compound 3.16 µM
[12] = second compound 0.1 µM, first compound 10 µM
[13] = second compound 0.316 µM, first compound 0.0316 µM
[14] = second compound 0.316 µM, first compound 0.1 µM
[15] = second compound 0.316 µM, first compound 0.316 µM
[16] = second compound 0.316 µM, first compound 1 µM
[17] = second compound 0.316 µM, first compound 3.16 µM
[18] = second compound 0.316 µM, first compound 10 µM
[19] = second compound 1 µM, first compound 0.0316 µM
[20] = second compound 1 µM, first compound 0.1 µM
[21] = second compound 1 µM, first compound 0.316 µM
[22] = second compound 1 µM, first compound 1 µM
[23] = second compound 1 µM, first compound 3.16 µM
[24] = second compound 1 µM, first compound 10 µM
[25] = second compound 3.16 µM, first compound 0.0316 µM
[26] = second compound 3.16 µM, first compound 0.1 µM
[27] = second compound 3.16 µM, first compound 0.316 µM
[28] = second compound 3.16 µM, first compound 1 µM
[29] = second compound 3.16 µM, first compound 3.16 µM
[30] = second compound 3.16 µM, first compound 10 µM
[31] = second compound 10 µM, first compound 0.0316 µM
[32] = second compound 10 µM, first compound 0.1 µM
[33] = second compound 10 µM, first compound 0.316 µM
[34] = second compound 10 µM, first compound 1 µM
[35] = second compound 10 µM, first compound 3.16 µM
[36] = second compound 10 µM, first compound 10 µM
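Further: spheroids exposed to compounds for seven days before readout.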
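Wherever viability, T/C is given: 100% = DMSO vehicle control viability.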

C#Cc1c(F)ccc2cc(O)cc(-c3ncc4c(N5CC6CCC(C5)N6)nc(OCC56CCCN5CC(F)C6)nc4c3F)c12 (stereo unspecified) + Nc1ccc(C#CCN(C(=O)Cc2ncc(C(F)(F)F)cc2C(F)(F)F)c2ccc(F)cc2)nn1
IC50 (second compound 0.0316 µM): > 10 µM
IC50 (second compound 0.1 µM): > 10 µM
IC50 (second compound 0.316 µM): > 10 µM
IC50 (second compound 1 µM): > 10 µM
IC50 (second compound 3.16 µM): > 10 µM
IC50 (second compound 10 µM): > 10 µM
viability, T/C [1]: 94.9%
viability, T/C [2]: 84.2%
viability, T/C [3]: 71.5%
viability, T/C [4]: 73.7%
viability, T/C [5]: 71.1%
viability, T/C [6]: 70.2%
viability, T/C [7]: 103%
viability, T/C [8]: 77.3%
viability, T/C [9]: 68%
viability, T/C [10]: 82%
viability, T/C [11]: 74.5%
viability, T/C [12]: 54.6%
viability, T/C [13]: 81.3%
viability, T/C [14]: 87.2%
viability, T/C [15]: 71.9%
viability, T/C [16]: 69.9%
viability, T/C [17]: 70.6%
viability, T/C [18]: 64.9%
viability, T/C [19]: 105%
viability, T/C [20]: 82.7%
viability, T/C [21]: 62.3%
viability, T/C [22]: 60.9%
viability, T/C [23]: 75.2%
viability, T/C [24]: 65%
viability, T/C [25]: 79.9%
viability, T/C [26]: 84%
viability, T/C [27]: 68.4%
viability, T/C [28]: 59.1%
viability, T/C [29]: 60.4%
viability, T/C [30]: 62.7%
viability, T/C [31]: 92.7%
viability, T/C [32]: 76.9%
viability, T/C [33]: 76.5%
viability, T/C [34]: 72%
viability, T/C [35]: 65.2%
viability, T/C [36]: 66.4%

C=CC(=O)N1CCN(c2nc(=O)n(-c3c(C)ccnc3C(C)C)c3nc(-c4c(O)cccc4F)c(F)cc23)C(C)C1 (stereo unspecified) + Nc1ccc(C#CCN(C(=O)Cc2ncc(C(F)(F)F)cc2C(F)(F)F)c2ccc(F)cc2)nn1
IC50 (second compound 0.0316 µM): > 10 µM
IC50 (second compound 0.1 µM): > 10 µM
IC50 (second compound 0.316 µM): > 10 µM
IC50 (second compound 1 µM): > 10 µM
IC50 (second compound 3.16 µM): > 10 µM
IC50 (second compound 10 µM): > 10 µM
viability, T/C [1]: 105%
viability, T/C [2]: 100%
viability, T/C [3]: 91.2%
viability, T/C [4]: 94.5%
viability, T/C [5]: 123%
viability, T/C [6]: 104%
viability, T/C [7]: 109%
viability, T/C [8]: 88.9%
viability, T/C [9]: 83.6%
viability, T/C [10]: 98.1%
viability, T/C [11]: 115%
viability, T/C [12]: 99.2%
viability, T/C [13]: 97.4%
viability, T/C [14]: 95.7%
viability, T/C [15]: 99.1%
viability, T/C [16]: 99.1%
viability, T/C [17]: 131%
viability, T/C [18]: 100%
viability, T/C [19]: 91.6%
viability, T/C [20]: 97.1%
viability, T/C [21]: 86.3%
viability, T/C [22]: 100%
viability, T/C [23]: 123%
viability, T/C [24]: 99.1%
viability, T/C [25]: 100%
viability, T/C [26]: 90.3%
viability, T/C [27]: 99.5%
viability, T/C [28]: 98.7%
viability, T/C [29]: 101%
viability, T/C [30]: 89.5%
viability, T/C [31]: 99.1%
viability, T/C [32]: 96.1%
viability, T/C [33]: 87.2%
viability, T/C [34]: 94.7%
viability, T/C [35]: 116%
viability, T/C [36]: 95.3%

CC(C)n1c(=O)n(C)c2cnc3cc(F)c(-c4ccc(OCCCN5CCCCC5)nc4)cc3c21 + Nc1ccc(C#CCN(C(=O)Cc2ncc(C(F)(F)F)cc2C(F)(F)F)c2ccc(F)cc2)nn1
IC50 (second compound 0.0316 µM): > 10 µM
IC50 (second compound 0.1 µM): > 10 µM
IC50 (second compound 0.316 µM): > 10 µM
IC50 (second compound 1 µM): > 10 µM
IC50 (second compound 3.16 µM): > 10 µM
IC50 (second compound 10 µM): > 10 µM
viability, T/C [1]: 88.2%
viability, T/C [2]: 110%
viability, T/C [3]: 113%
viability, T/C [4]: 105%
viability, T/C [5]: 110%
viability, T/C [6]: 96.7%
viability, T/C [7]: 106%
viability, T/C [8]: 113%
viability, T/C [9]: 104%
viability, T/C [10]: 122%
viability, T/C [11]: 102%
viability, T/C [12]: 112%
viability, T/C [13]: 103%
viability, T/C [14]: 100%
viability, T/C [15]: 102%
viability, T/C [16]: 109%
viability, T/C [17]: 110%
viability, T/C [18]: 105%
viability, T/C [19]: 111%
viability, T/C [20]: 99.7%
viability, T/C [21]: 101%
viability, T/C [22]: 116%
viability, T/C [23]: 89.3%
viability, T/C [24]: 113%
viability, T/C [25]: 98.1%
viability, T/C [26]: 103%
viability, T/C [27]: 101%
viability, T/C [28]: 115%
viability, T/C [29]: 102%
viability, T/C [30]: 126%
viability, T/C [31]: 102%
viability, T/C [32]: 102%
viability, T/C [33]: 110%
viability, T/C [34]: 96.7%
viability, T/C [35]: 127%
viability, T/C [36]: 117%
